Laboratory results published in patent publication US7906507B2, “Oxadiazoanthracene compounds for the treatment of diabetes” (TransTech Pharma, Inc., priority 2008, dated 2011).

Target: T1, cloned human GLP-1 receptor (Homo sapiens, UniProt P43220)
T1 construct: expressed in transfected cells; host or cells: CHO or HEK-293 cells
Assay: Functional cell-based assay: cAMP functional assay
Settings: for Emax: 0.5 h, percentage relative to maximal GLP-1-induced cAMP accumulation, na = not active in the assay, read-out: % activation
Protocol: Following overnight incubation of cells, media was removed, and compounds (at concentrations ranging from 0.0001 to 100 μM) were added to monolayer cells in Iscove's modified dulbecco's medium (IMDM), 100 μM RO 20-1724 PDE inhibitor, 0.1% BSA, 2% DMSO in a final volume of 100 μL, and incubated for 30 min at 37° C. 95% O2, 5% CO2 in a humidified incubator. cAMP was quantitated using a homogenous time-resolved fluorescence detection system (cAMP dynamic, CIS bio International).

T1 sequence (P43220 24-463): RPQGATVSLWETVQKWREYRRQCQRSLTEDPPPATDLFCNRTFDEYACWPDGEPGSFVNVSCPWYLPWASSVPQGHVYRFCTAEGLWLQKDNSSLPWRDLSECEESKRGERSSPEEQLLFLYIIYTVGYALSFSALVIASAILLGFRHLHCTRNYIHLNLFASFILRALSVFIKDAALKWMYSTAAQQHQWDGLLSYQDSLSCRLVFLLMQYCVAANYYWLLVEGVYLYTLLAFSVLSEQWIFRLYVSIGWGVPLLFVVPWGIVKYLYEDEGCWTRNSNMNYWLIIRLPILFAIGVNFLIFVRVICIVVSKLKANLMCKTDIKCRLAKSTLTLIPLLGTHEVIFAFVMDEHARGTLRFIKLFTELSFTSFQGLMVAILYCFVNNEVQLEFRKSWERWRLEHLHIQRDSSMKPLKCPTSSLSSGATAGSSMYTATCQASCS

Compound | EC50 [nM] | Emax [%]
Cc1cc(C(=O)N2Cc3cc4c(cc3C[C@H]2C(=O)N[C@@H](Cc2ccc(-c3ccc(C#N)cc3)cc2)C(=O)O)NC(=O)C(c2ccc(OCc3ccc(Cl)c(Cl)c3)cc2)O4)no1 (stereo partly drawn) [Example 31, (S)-3-(4′-Cyano-biphenyl-4-yl)-2-{[(S)-3-[4-(3,4-dichloro-benzyloxy)-phenyl]-6-(5-methyl-isoxazole-3-carbonyl)-2-oxo-2,3,5,6,7,8-hexahydro-1H-4-oxa-1,6-diaza-anthracene-7-carbonyl]-amino}-propionic acid] | 1000 | 13
N#Cc1ccc(-c2ccc(C[C@H](NC(=O)[C@@H]3Cc4cc5c(cc4CN3Cc3nccs3)OC(c3ccc(OCc4ccc(Cl)c(Cl)c4)cc3)C(=O)N5)C(=O)O)cc2)cc1 (stereo partly drawn) [Example 49, (S)-3-(4′-Cyano-biphenyl-4-yl)-2-({(S)-3-[4-(3,4-dichloro-benzyloxy)-phenyl]-2-oxo-6-thiazol-2-ylmethyl-2,3,5,6,7,8-hexahydro-1H-4-oxa-1,6-diaza-anthracene-7-carbonyl}-amino)-propionic acid] | 557 | 57
N#Cc1ccc(-c2ccc(C[C@H](NC(=O)[C@@H]3Cc4cc5c(cc4CN3C(=O)c3ccccc3)OC(c3ccc(OCc4cc(Cl)ccc4Cl)cc3)C(=O)N5)C(=O)O)cc2)cc1 (stereo partly drawn) [Example 58, (S)-2-({(S)-6-Benzoyl-3-[4-(2,5-dichloro-benzyloxy)-phenyl]-2-oxo-2,3,5,6,7,8-hexahydro-1H-4-oxa-1,6-diaza-anthracene-7-carbonyl}-amino)-3-(4′-cyano-biphenyl-4-yl)-propionic acid] | 565 | 45
COc1ccc(COc2ccc(C3Oc4cc5c(cc4NC3=O)C[C@@H](C(=O)N[C@@H](Cc3ccc(-c4ccc(C#N)cc4)cc3)C(=O)O)N(C(=O)c3ccccc3)C5)cc2)cc1C(F)(F)F (stereo partly drawn) [Example 62, (S)-2-({(S)-6-Benzoyl-3-[4-(4-methoxy-3-trifluoromethyl-benzyloxy)-phenyl]-2-oxo-2,3,5,6,7,8-hexahydro-1H-4-oxa-1,6-diaza-anthracene-7-carbonyl}-amino)-3-(4′-cyano-biphenyl-4-yl)-propionic acid] | 1000 | 15
N#Cc1ccc(-c2ccc(C[C@H](NC(=O)[C@@H]3Cc4cc5c(cc4CN3Cc3cccc(Br)n3)OC(c3ccc(OCc4ccc(Cl)c(Cl)c4)cc3)C(=O)N5)C(=O)O)cc2)cc1 (stereo partly drawn) [Example 45, (S)-2-({(S)-6-(6-Bromo-pyridin-2-ylmethyl)-3-[4-(3,4-dichloro-benzyloxy)-phenyl]-2-oxo-2,3,5,6,7,8-hexahydro-1H-4-oxa-1,6-diaza-anthracene-7-carbonyl}-amino)-3-(4′-cyano-biphenyl-4-yl)-propionic acid] | 1000 | 18
N#Cc1ccc(-c2ccc(C[C@H](NC(=O)[C@@H]3Cc4cc5c(cc4CN3C(=O)c3ccccc3)OC(c3ccc(OCc4c(Cl)cccc4Cl)cc3)C(=O)N5)C(=O)O)cc2)cc1 (stereo partly drawn) [Example 57, (S)-2-({(S)-6-Benzoyl-3-[4-(2,6-dichloro-benzyloxy)-phenyl]-2-oxo-2,3,5,6,7,8-hexahydro-1H-4-oxa-1,6-diaza-anthracene-7-carbonyl}-amino)-3-(4′-cyano-biphenyl-4-yl)-propionic acid] | 570 | 20
N#Cc1ccc(-c2ccc(C[C@H](NC(=O)[C@@H]3Cc4cc5c(cc4CN3C(=O)c3cccc(C(F)(F)F)c3)OC(c3ccc(OCc4ccc(Cl)c(Cl)c4)cc3)C(=O)N5)C(=O)O)cc2)cc1 (stereo partly drawn) [Example 24, (S)-3-(4′-Cyano-biphenyl-4-yl)-2-{[(S)-3-[4-(3,4-dichloro-benzyloxy)-phenyl]-2-oxo-6-(3-trifluoromethyl-benzoyl)-2,3,5,6,7,8-hexahydro-1H-4-oxa-1,6-diaza-anthracene-7-carbonyl]-amino}-propionic acid] | 1600 | 53
N#Cc1ccc(-c2ccc(C[C@H](NC(=O)[C@@H]3Cc4cc5c(cc4CN3CC#Cc3ncccn3)OC(c3ccc(OCc4ccc(Cl)c(Cl)c4)cc3)C(=O)N5)C(=O)O)cc2)cc1 (stereo partly drawn) [Example 55, (S)-3-(4′-Cyano-biphenyl-4-yl)-2-{[(S)-3-[4-(3,4-dichloro-benzyloxy)-phenyl]-2-oxo-6-(3-pyrimidin-2-yl-prop-2-ynyl)-2,3,5,6,7,8-hexahydro-1H-4-oxa-1,6-diaza-anthracene-7-carbonyl]-amino}-propionic acid] | 216 | 49.4
N#Cc1ccc(-c2ccc(C[C@H](NC(=O)[C@@H]3Cc4cc5c(cc4CN3Cc3ccccc3C#N)OC(c3ccc(OCc4ccc(Cl)c(Cl)c4)cc3)C(=O)N5)C(=O)O)cc2)cc1 (stereo partly drawn) [Example 53, (S)-2-({(S)-6-(2-Cyano-benzyl)-3-[4-(3,4-dichloro-benzyloxy)-phenyl]-2-oxo-2,3,5,6,7,8-hexahydro-1H-4-oxa-1,6-diaza-anthracene-7-carbonyl}-amino)-3-(4′-cyano-biphenyl-4-yl)-propionic acid] | 1040 | 52.5
CN1C(=O)C(c2ccc(OCc3ccc(Cl)c(Cl)c3)cc2)Oc2cc3c(cc21)C[C@@H](C(=O)N[C@@H](Cc1ccc(-c2ccc(C#N)cc2)cc1)C(=O)O)N(C1CCCCC1)C3 (stereo partly drawn) [Example 75, (S)-3-(4′-Cyano-biphenyl-4-yl)-2-({(S)-6-cyclohexyl-3-[4-(3,4-dichloro-benzyloxy)-phenyl]-1-methyl-2-oxo-2,3,5,6,7,8-hexahydro-1H-4-oxa-1,6-diaza-anthracene-7-carbonyl}-amino)-propionic acid] | 244 | 20
CC(C)(C)OC(=O)N1Cc2cc3c(cc2C[C@H]1C(=O)N[C@@H](Cc1ccc(-c2ccc(C#N)cc2)cc1)C(=O)O)NC(=O)C(c1ccc(OCc2ccc(Cl)c(Cl)c2)cc1)O3 (stereo partly drawn) [Example 29, (S)-7-[(S)-1-Carboxy-2-(4′-cyano-biphenyl-4-yl)-ethylcarbamoyl]-3-[4-(3,4-dichloro-benzyloxy)-phenyl]-2-oxo-1,2,3,5,7,8-hexahydro-4-oxa-1,6-diaza-anthracene-6-carboxylic acid tert-butyl ester] | 290 | 17
N#Cc1ccc(-c2ccc(C[C@H](NC(=O)[C@@H]3Cc4cc5c(cc4CN3C(=O)[C@H]3CCCO3)OC(c3ccc(OCc4ccc(Cl)c(Cl)c4)cc3)C(=O)N5)C(=O)O)cc2)cc1 (stereo partly drawn) [Example 6, (S)-3-(4′-Cyano-biphenyl-4-yl)-2-{[(S)-3-[4-(3,4-dichloro-benzyloxy)-phenyl]-2-oxo-6-((R)-tetrahydro-furan-2-carbonyl)-2,3,5,6,7,8-hexahydro-1H-4-oxa-1,6-diaza-anthracene-7-carbonyl]-amino}-propionic acid] | 3600 | 7

The next lines start with the values.

EC50 [nM] | Emax [%] | Compound
362 | 8.5 | Cc1noc(C)c1S(=O)(=O)N1Cc2cc3c(cc2C[C@H]1C(=O)N[C@@H](Cc1ccc(-c2ccc(C#N)cc2)cc1)C(=O)O)N(C)C(=O)C(c1ccc(OCc2ccc(Cl)c(Cl)c2)cc1)O3 (stereo partly drawn) [Example 96, (S)-3-(4′-Cyano-biphenyl-4-yl)-2-{[(S)-3-[4-(3,4-dichloro-benzyloxy)-phenyl]-6-(3,5-dimethyl-isoxazole-4-sulfonyl)-1-methyl-2-oxo-2,3,5,6,7,8-hexahydro-1H-4-oxa-1,6-diaza-anthracene-7-carbonyl]-amino}-propionic acid]
59.3 | 58 | CC[C@@H](c1ccccc1)N1Cc2cc3c(cc2C[C@H]1C(=O)N[C@@H](Cc1ccc(-c2ccc(C#N)cc2)cc1)C(=O)O)N(C)C(=O)[C@@H](c1ccc(OCc2ccc(Cl)c(Cl)c2)cc1)O3 [Example 86, (S)-3-(4′-Cyano-biphenyl-4-yl)-2-{[(3R,7S)-3-[4-(3,4-dichloro-benzyloxy)-phenyl]-1-methyl-2-oxo-6-((S)-1-phenyl-propyl)-2,3,5,6,7,8-hexahydro-1H-4-oxa-1,6-diaza-anthracene-7-carbonyl]-amino}-propionic acid]
626 | 42 | CC[C@@H](c1ccccc1)N1Cc2cc3c(cc2C[C@H]1C(=O)N[C@H](Cc1ccc(-c2ccc(C#N)cc2)cc1)C(=O)O)N(C)C(=O)[C@@H](c1ccc(OCc2ccc(Cl)c(Cl)c2)cc1)O3 [Example 98, (R)-3-(4′-Cyano-biphenyl-4-yl)-2-{[(3R,7S)-3-[4-(3,4-dichloro-benzyloxy)-phenyl]-1-methyl-2-oxo-6-((S)-1-phenyl-propyl)-2,3,5,6,7,8-hexahydro-1H-4-oxa-1,6-diaza-anthracene-7-carbonyl]-amino}-propionic acid]
1140 | 8.12 | CN1C(=O)C(c2ccc(OCc3ccc(Cl)c(Cl)c3)cc2)Oc2cc3c(cc21)C[C@@H](C(=O)N[C@@H](Cc1ccc(-c2ccc(C#N)cc2)cc1)C(=O)O)N(C1CCC1)C3 (stereo partly drawn) [Example 76, (S)-3-(4′-Cyano-biphenyl-4-yl)-2-({(S)-6-cyclobutyl-3-[4-(3,4-dichloro-benzyloxy)-phenyl]-1-methyl-2-oxo-6(1-phenyl-cyclopentylmethyl)-2,3,5,6,7,8-hexahydro-1H-4-oxa-1,6-diaza-anthracene-7-carbonyl}-amino)-propionic acid]
725 | 39 | CC[C@@H](c1ccccc1)N1Cc2cc3c(cc2C[C@H]1C(=O)N[C@@H](Cc1ccc(-c2ccc(OC)cc2)cc1)C(=O)O)N(C)C(=O)[C@@H](c1ccc(OCc2ccc(Cl)c(Cl)c2)cc1)O3 [Example 91, (S)-2-{[(3R,7S)-3-[4-(3,4-Dichloro-benzyloxy)-phenyl]-1-methyl-2-oxo-6-((S)-1-phenyl-propyl)-2,3,5,6,7,8-hexahydro-1H-4-oxa-1,6-diaza-anthracene-7-carbonyl]-amino}-3-(4′-methoxy-biphenyl-4-yl)-propionic acid]
